Assay results as given in US10167262B2, “Herbicidal substituted 3-arylpyrazoles” (FMC CORPORATION, priority 2014, dated 2019).

Key:
Type in all cases: in vivo
[1] = test system: ducksalad (Heteranthera limosa); assay: Test B flooded paddy test, plant response rating 0-100; conditions: Flood, 250 g ai/ha; scale 0 to 100 (0 no effect, 100 complete control); 13 to 15 days
In short: (§1)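 Greenhouse pots flooded to 3 cm above soil at time of treatment received compound via the water, which stayed at that level.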

[2] = test system: barnyardgrass (Echinochloa crus-galli); assay: as above; conditions: Flood, 250 g ai/ha; scale 0 to 100 (0 no effect, 100 complete control); 13 to 15 days
In short: as §1

[3] = test system: rice (Oryza sativa); assay: as above; conditions: Flood, 250 g ai/ha; scale 0 to 100 (0 no effect, 100 complete control); 13 to 15 days
In short: as §1

[4] = test system: sedge, umbrella (small-flower umbrella sedge, Cyperus difformis); assay: as above; conditions: Flood, 250 g ai/ha; scale 0 to 100 (0 no effect, 100 complete control); 13 to 15 days
In short: as §1

[5] = test system: barnyardgrass (Echinochloa crus-galli); assay: Test C pre-/postemergence greenhouse test, plant response rating 0-100
In short: (§2)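 Two application timings: preemergence onto seeded loam/sand soil and postemergence onto plants at the 1–4 leaf stage (2–18 cm) in peat/vermiculite medium. Formulation: non-phytotoxic solvent with surfactant. Read-out: visual control rating, 0–100, at 13–15 days after treatment.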

[6] = test system: waterhemp (common waterhemp, Amaranthus rudis); assay: as above
In short: as §2

[7] = test system: dayflower (Virginia (VA) dayflower, Commelina virginica); assay: Test E pre-/postemergence greenhouse test, plant response rating 0-100; conditions: scale 0 to 100; for Plant response rating, Dayflower, VA: Postemergence; for Dayflower, VA plant response rating: Preemergence
Description: (§3) Seeds of plant species selected from corn (Zea mays), soybean (Glycine max), velvetleaf (Abutilon theophrasti), lambsquarters (Chenopodium album), wild poinsettia (Euphorbia heterophylla), palmer pigweed (Amaranthus palmeri), waterhemp (common waterhemp, Amaranthus rudis), surinam grass (Brachiaria decumbens), large (Lg) crabgrass (Digitaria sanguinalis), Brazilian crabgrass (Digitaria horizontalis), fall panicum (Panicum dichotomiflorum), giant foxtail (Setaria faberii), green foxtail (Setaria viridis), goosegrass (Eleusine indica), johnsongrass (Sorghum halepense), ragweed (common ragweed, Ambrosia elatior), barnyardgrass (Echinochloa crus-galli), sandbur (southern sandbur, Cenchrus echinatus), arrowleaf sida (Sida rhombifolia), Italian ryegrass (Lolium multiflorum), dayflower (Virginia (VA) dayflower, Commelina virginica), field bindweed (Convolvulus arvensis), morningglory (Ipomoea coccinea), nightshade (eastern black nightshade, Solanum ptycanthum), kochia (Kochia scoparia), yellow nutsedge (Cyperus esculentus), smartweed (ladysthumb smartweed, Polygonum persicaria), cocklebur (common cocklebur, Xanthium strumarium), and hairy beggarticks (Bidens pilosa), were planted into a silt loam soil and treated preemergence with test chemicals formulated in a non-phytotoxic solvent mixture which included a surfactant.
(§4) At the same time, plants from these crop and weed species and also waterhemp_RES1, (ALS & Triazine resistant common waterhemp, Amaranthus rudis), and waterhemp_RES2, (ALS & HPPD resistant common waterhemp, Amaranthus rudis) were planted in pots containing Redi-Earth® planting medium (Scotts Company, 14111 Scottslawn Road, Marysville, Ohio 43041) comprising spaghnum peat moss, vermiculite, wetting agent and starter nutrients were treated with postemergence applications of test chemicals formulated in the same manner. Plants ranged in height from 2 to 18 cm for postemergence treatments (1- to 4-leaf stage).
(§5) Treated plants and controls were maintained in a greenhouse for 14 to 21 days, after which time all species were compared to controls and visually evaluated. Plant response ratings, summarized in Table E, are based on a scale of 0 to 100 where 0 is no effect and 100 is complete control. A dash (-) response means no test result.

[8] = test system: field bindweed (Convolvulus arvensis); assay: as above; conditions: scale 0 to 100; for Plant response rating, Field Bindweed: Postemergence; for Field Bindweed plant response rating: Preemergence
Description: as §3, §4, §5

[9] = test system: Italian ryegrass (Lolium multiflorum); assay: as above; conditions: scale 0 to 100; for Plant response rating, Ryegrass, Italian: Postemergence; for Ryegrass, Italian plant response rating: Preemergence
Description: as §3, §4, §5

[10] = test system: waterhemp_RES2, (ALS & HPPD resistant common waterhemp, Amaranthus rudis); assay: Test E postemergence greenhouse test, plant response rating 0-100; conditions: scale 0 to 100
In short: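 Visual ratings, 0 (no effect) to 100 (complete control), made versus controls 14–21 days after postemergence application in the greenhouse. Plants were at 1- to 4-leaf stage (2–18 cm) in peat moss/vermiculite potting medium.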

[11] = Postemergence, 125 g ai/ha, scale 0 to 100
[12] = Postemergence, 250 g ai/ha, scale 0 to 100
[13] = Postemergence, 500 g ai/ha, scale 0 to 100
[14] = Preemergence, 0 to 100 scale (0 no effect, 100 complete control), rate 500 g ai/ha

SMILES: O=C(c1ccccc1)c1cn(S(=O)(=O)C(F)(F)F)nc1-c1cc(Cl)cc(Cl)c1 [Compound 2]
- Plant response rating, Ducksalad [1]: 0
- Plant response rating, Barnyardgrass [2]: 0
- Plant response rating, Rice [3]: 0
- Plant response rating, Sedge, Umbrella [4]: 0
- Plant response rating (0 to 100), Barnyardgrass ([5]; Postemergence, 62 g ai/ha): 0
- Plant response rating, Barnyardgrass [5, 11]: 0
- Plant response rating, Barnyardgrass [5, 12]: 0
- Plant response rating, Barnyardgrass [5, 13]: 0
- Plant response rating (0 to 100), Waterhemp ([6]; Postemergence, 62 g ai/ha): 85
- Plant response rating (0 to 100), Waterhemp ([6]; Postemergence, 125 g ai/ha): 85
- Plant response rating, Waterhemp [6, 12]: 100
- Plant response rating, Waterhemp [6, 13]: 100
- Plant response rating, Waterhemp [6, 14]: 100
- Plant response rating, Dayflower, VA ([7]; 31 g ai/ha): 0
- Plant response rating, Dayflower, VA ([7]; 62 g ai/ha): 0
- Plant response rating, Dayflower, VA ([7]; 125 g ai/ha): 0
- Plant response rating, Dayflower, VA ([7]; 250 g ai/ha): 0
- Plant response rating, Dayflower, VA ([7]; 500 g ai/ha): 0
- Dayflower, VA plant response rating ([7]; 62 g ai/ha): 0
- Plant response rating, Field Bindweed ([8]; 31 g ai/ha): 0
- Plant response rating, Field Bindweed ([8]; 62 g ai/ha): 0
- Plant response rating, Field Bindweed ([8]; 125 g ai/ha): 0
- Plant response rating, Field Bindweed ([8]; 250 g ai/ha): 0
- Plant response rating, Field Bindweed ([8]; 500 g ai/ha): 0
- Field Bindweed plant response rating ([8]; 31 g ai/ha): 0
- Field Bindweed plant response rating ([8]; 62 g ai/ha): 0
- Field Bindweed plant response rating ([8]; 125 g ai/ha): 0
- Field Bindweed plant response rating ([8]; 250 g ai/ha): 0
- Field Bindweed plant response rating ([8]; 500 g ai/ha): 0
- Plant response rating, Ryegrass, Italian ([9]; 31 g ai/ha): 0
- Plant response rating, Ryegrass, Italian ([9]; 62 g ai/ha): 0
- Plant response rating, Ryegrass, Italian ([9]; 125 g ai/ha): 0
- Plant response rating, Ryegrass, Italian ([9]; 250 g ai/ha): 0
- Plant response rating, Ryegrass, Italian ([9]; 500 g ai/ha): 0
- Ryegrass, Italian plant response rating ([9]; 31 g ai/ha): 0
- Ryegrass, Italian plant response rating ([9]; 62 g ai/ha): 0
- Ryegrass, Italian plant response rating ([9]; 125 g ai/ha): 0
- Ryegrass, Italian plant response rating ([9]; 250 g ai/ha): 0
- Ryegrass, Italian plant response rating ([9]; 500 g ai/ha): 0
- Plant response rating, Waterhemp_RES2 ([10]; 31 g ai/ha): 0
- Plant response rating, Waterhemp_RES2 ([10]; 62 g ai/ha): 65
- Plant response rating, Waterhemp_RES2 ([10]; 125 g ai/ha): 85
- Plant response rating, Waterhemp_RES2 ([10]; 250 g ai/ha): 95
- Plant response rating, Waterhemp_RES2 ([10]; 500 g ai/ha): 98

SMILES: O=C(c1ccccc1)c1cn(S(=O)(=O)CC(F)(F)F)nc1-c1cc(Cl)cc(Cl)c1 [Compound 3]
- Plant response rating, Ducksalad [1]: 0
- Plant response rating, Barnyardgrass [2]: 0
- Plant response rating, Rice [3]: 0
- Plant response rating, Sedge, Umbrella [4]: 0
- Plant response rating (0 to 100), Barnyardgrass ([5]; Postemergence, 62 g ai/ha): 0
- Plant response rating, Barnyardgrass [5, 11]: 0
- Plant response rating, Barnyardgrass [5, 12]: 5
- Plant response rating, Barnyardgrass [5, 13]: 10
- Plant response rating, Barnyardgrass ([5]; Preemergence, 62 g ai/ha): 0
- Plant response rating, Barnyardgrass ([5]; Preemergence, 125 g ai/ha): 0
- Plant response rating, Barnyardgrass ([5]; Preemergence, 250 g ai/ha): 0
- Plant response rating, Barnyardgrass ([5]; Preemergence, 500 g ai/ha): 0
- Plant response rating (0 to 100), Waterhemp ([6]; Postemergence, 62 g ai/ha): 90
- Plant response rating (0 to 100), Waterhemp ([6]; Postemergence, 125 g ai/ha): 90
- Plant response rating, Waterhemp [6, 12]: 90
- Plant response rating, Waterhemp [6, 13]: 95
- Plant response rating, Waterhemp ([6]; Preemergence, 62 g ai/ha): 100
- Plant response rating, Waterhemp ([6]; Preemergence, 125 g ai/ha): 100
- Plant response rating, Waterhemp ([6]; Preemergence, 250 g ai/ha): 100
- Plant response rating, Waterhemp ([6]; Preemergence, 500 g ai/ha): 100
- Plant response rating, Waterhemp [6, 14]: 100
- Plant response rating, Dayflower, VA ([7]; 31 g ai/ha): 0
- Plant response rating, Dayflower, VA ([7]; 62 g ai/ha): 0
- Plant response rating, Dayflower, VA ([7]; 125 g ai/ha): 0
- Plant response rating, Dayflower, VA ([7]; 250 g ai/ha): 0
- Plant response rating, Dayflower, VA ([7]; 500 g ai/ha): 0
- Dayflower, VA plant response rating ([7]; 125 g ai/ha): 0
- Dayflower, VA plant response rating ([7]; 250 g ai/ha): 0
- Dayflower, VA plant response rating ([7]; 500 g ai/ha): 0
- Plant response rating, Field Bindweed ([8]; 31 g ai/ha): 0
- Plant response rating, Field Bindweed ([8]; 62 g ai/ha): 0
- Plant response rating, Field Bindweed ([8]; 125 g ai/ha): 0
- Plant response rating, Field Bindweed ([8]; 250 g ai/ha): 0
- Plant response rating, Field Bindweed ([8]; 500 g ai/ha): 0
- Field Bindweed plant response rating ([8]; 31 g ai/ha): 0
- Field Bindweed plant response rating ([8]; 62 g ai/ha): 0
- Field Bindweed plant response rating ([8]; 125 g ai/ha): 0
- Field Bindweed plant response rating ([8]; 250 g ai/ha): 0
- Field Bindweed plant response rating ([8]; 500 g ai/ha): 65
- Plant response rating, Ryegrass, Italian ([9]; 31 g ai/ha): 0
- Plant response rating, Ryegrass, Italian ([9]; 62 g ai/ha): 0
- Plant response rating, Ryegrass, Italian ([9]; 125 g ai/ha): 0
- Plant response rating, Ryegrass, Italian ([9]; 250 g ai/ha): 0
- Plant response rating, Ryegrass, Italian ([9]; 500 g ai/ha): 0
- Ryegrass, Italian plant response rating ([9]; 31 g ai/ha): 0
- Ryegrass, Italian plant response rating ([9]; 62 g ai/ha): 0
- Ryegrass, Italian plant response rating ([9]; 125 g ai/ha): 0
- Ryegrass, Italian plant response rating ([9]; 250 g ai/ha): 0
- Ryegrass, Italian plant response rating ([9]; 500 g ai/ha): 0
- Plant response rating, Waterhemp_RES2 ([10]; 31 g ai/ha): 60
- Plant response rating, Waterhemp_RES2 ([10]; 62 g ai/ha): 80
- Plant response rating, Waterhemp_RES2 ([10]; 125 g ai/ha): 70
- Plant response rating, Waterhemp_RES2 ([10]; 250 g ai/ha): 95
- Plant response rating, Waterhemp_RES2 ([10]; 500 g ai/ha): 95
